Data published in patent US9815863B2, “Hydrogen bond forming fluoro ketolides for treating diseases” (priority 2010, dated 2017).

Key:
[1] = tested on: Streptococcus pneumoniae Pen^S, Tel^S, Mac^S; assay: MIC against streptococci clinical isolates (Table 3); assay type: cell-based; settings: 10 strains
[2] = tested on: Streptococcus pneumoniae Pen^R, Tel^1/^R, Mac^R; assay: as above; assay type: cell-based; settings: S. pneumoniae Pen^R, 12 strains, constitutive ermB
[3] = tested on: Streptococcus pyogenes Tel^S, Mac^S; assay: as above; assay type: cell-based; settings: 10 strains
[4] = tested on: Streptococcus pyogenes Tel^R, Mac^R; assay: as above; assay type: cell-based; settings: S. pyogenes Tel^R, Mac^R; 9 strains (8 ermB, 1 ermA, constitutive)
[5] = tested on: E. coli ribosomes (23S rRNA); assay: RNA footprinting (ribosome chemical probing), wild-type E. coli ribosomes; assay type: binding; settings: 100 μM antibiotic; for Protection of A752 from DMS modification: E. coli ribosomes
Method: (§1) Ribosome chemical probing. rRNA probing was done following standard protocols (Merryman, C., and H. F. Noller. 1998. Footprinting and modification-interference analysis of binding sites on RNA, p. 237-253. In C. W. J. Smith (ed.), RNA:Protein Interactions, A Practical Approach. Oxford University Press, Oxford), with minor modifications. Briefly, 200 nM ribosomes were incubated with 100 μM antibiotic in 50 μL of buffer B (80 mM HEPES-KOH [pH 7.8], 20 mM MgCl2, 100 mM NH4Cl, 1.5 mM dithiothreitol) for 10 min at 37° C., followed by 10 min at 20° C. Modifying reagents (dimethyl sulfate [DMS], kethoxal, or 1-cyclohexyl-3-(2-morpholinoethyl)carbodiimide metho p-toluene sulfonate [CMCT]) were added and the modification reaction was carried out for 10 min at 37° C. After quenching the reaction and ethanol precipitation, rRNA was extracted and the distribution of modified nucleotides was assessed by primer extension.
(§2) Interactions of CEM-101 with wild-type E. coli and S. aureus ribosomes in solution. […] 1987. Chloramphenicol, erythromycin, carbomycin and vernamycin B protect overlapping sites in the peptidyl transferase region of 23S ribosomal RNA. Biochimie 69:879-884). Also included in this study was a C3-cladinose cousin of CEM-101, CEM-103, which lacks the C2-linked fluorine atom.

[6] = tested on: S. aureus ribosomes (23S rRNA); assay: RNA footprinting (ribosome chemical probing), wild-type S. aureus ribosomes; assay type: binding; settings: 100 μM antibiotic; for Protection of A752 from DMS modification: S. aureus ribosomes
Method: as §1, §2

[7] = tested on: 2058-dimethylated ribosomes isolated from the S. aureus N315 strain; assay: RNA footprinting of A2058-dimethylated (Erm-modified) ribosomes from S. aureus N315; assay type: binding; settings: S. aureus N315 ribosomes dimethylated at A2058, drugs at 100 μM
Method: as §1
Interaction of CEM-101 with S. aureus ribosomes dimethylated at A2058 by Erm-methyltransferase. Erm-methyltransferase modifies A2058 in 23S rRNA by consecutively adding two methyl groups to the exocyclic amino group of the adenine base. Such modification completely blocks binding of erythromycin and similar macrolides, whereas its effect on binding of ketolides is less clear (Douthwaite, S., L. H. Hansen, and P. Mauvais. 2000. Macrolide-ketolide inhibition of MLS-resistant ribosomes is improved by alternative drug interaction with domain R of 23S rRNA. Mol. Microbiol. 36:183-193; Liu, M., and S. Douthwaite. 2002. Activity of the ketolide telithromycin is refractory to Erm monomethylation of bacterial rRNA. Antimicrob. Agents Chemother. 46:1629-1633). Therefore, interaction of CEM-101 with the ribosomes isolated from a clinical S. aureus strain N315, which carries five chromosomal copies of constitutively expressed ermA gene present in the Tn554 transposon (Kuroda, M., T. Ohta, I. Uchiyama, T. Baba, H. Yuzawa, I. Kobayashi, L. Cui, A. Oguchi, K. Aoki, Y. Nagai, J. Lian, T. Ito, M. Kanamori, H. Matsumaru, A. Maruyama, H. Murakami, A. Hosoyama, Y. Mizutani-Ui, N. K. Takahashi, T. Sawano, R. Inoue, C. Kaito, K. Sekimizu, H. Hirakawa, S. Kuhara, S. Goto, J. Yabuzaki, M. Kanehisa, A. Yamashita, K. Oshima, K. Furuya, C. Yoshino, T. Shiba, M. Hattori, N. Ogasawara, H. Hayashi, and K. Hiramatsu. 2001. Whole genome sequencing of meticillin-resistant Staphylococcus aureacs. Lancet 357:1225-1240) was investigated.
Footprinting analysis was used to test interactions of ketolides (CEM-101 and telithromycin) and cladinose-containing macrolides (CEM-103 and erythromycin) with the 2058-dimethylated ribosomes isolated from the S. aureus N315 strain. Ribosomes were incubated with the drugs (present at 100 μM concentration) and probed by DMS modification. Because dimethylated A2058 blocks progression of reverse transcriptase along the RNA template, a strong reverse transcriptase stop is observed at A2058 on the primer extension gel (Vester, B., and S. Douthwaite. 1994. Domain V of 23S rRNA contains all the structural elements necessary for recognition by the ErmE methyltransferase. J. Bacteriol. 176:6999-7004; Zhong, P., Z. Cao, R. Hammond, Y. Chen, J. Beyer, V. D. Shortridge, L. Y. Phan, S. Pratt, J. Capobianco, K. A. Reich, R. K. Flamm, Y. S. Or, and L. Katz. 1999. Induction of ribosome methylation in MLS-resistant Streptococcus pneumoniae by macrolides and ketolides. Microb. Drug Resist. 5:183-188). Therefore, it is impossible to use footprinting to evaluate interactions of macrolides with this position in the S. aureus N315 ribosomes. […]

[8] = tested on: S. pneumoniae ATCC 49619/WT; assay: Conventional antibacterial screen; assay type: cell-based
[9] = tested on: S. pneumoniae 117-20B/WT; assay: Conventional antibacterial screen; assay type: cell-based
[10] = tested on: S. pneumoniae 014-4331A/mefA; assay: Conventional antibacterial screen; assay type: cell-based
[11] = tested on: S. pneumoniae 007-4589A/ermB; assay: Conventional antibacterial screen; assay type: cell-based
[12] = tested on: S. pneumoniae 120-1037B/-ermB/mefA; assay: Conventional antibacterial screen; assay type: cell-based
[13] = tested on: S. pyogenes ATCC 19615; assay: Conventional antibacterial screen; assay type: cell-based
[14] = tested on: S. pyogenes 129-7129A/ermA; assay: Conventional antibacterial screen; assay type: cell-based
[15] = tested on: S. pyogenes 089-14217A/ermB; assay: Conventional antibacterial screen; assay type: cell-based
[16] = tested on: S. aureus 024-11A/WT; assay: Conventional antibacterial screen; assay type: cell-based
[17] = tested on: S. aureus ATCC 29213/WT; assay: Conventional antibacterial screen; assay type: cell-based
[18] = tested on: S. aureus BAA-977/ermA; assay: Conventional antibacterial screen; assay type: cell-based
[19] = tested on: S. aureus D-5/ermA; assay: Conventional antibacterial screen; assay type: cell-based
[20] = tested on: M. luteus ATCC 9341/WT; assay: Conventional antibacterial screen; assay type: cell-based
[21] = tested on: E. coli ATCC 25922/WT; assay: Conventional antibacterial screen; assay type: cell-based
[22] = tested on: E. coli 122-5930A/WT; assay: Conventional antibacterial screen; assay type: cell-based
[23] = tested on: bacterial protein synthesis (E. coli S30 extract); assay: E. coli cell-free transcription-translation (TnT) S30 system, firefly luciferase synthesis; settings: read-out: IC50 of inhibition of firefly luciferase synthesis, ribosomes 600 nM

11-N-[4-[4-(3-aminophenyl)[1,2,3]triazol-1-yl]butyl]-5-O-desosaminyl-6-O-methyl-3-oxo-erythronolide A 11,12-cyclic carbamate [CEM-Des-F]
MIC50 [1]: 0.03 µg/mL | MIC90 [1]: 0.03 µg/mL | MIC50 [2]: 4 µg/mL | MIC90 [2]: 4 µg/mL | MIC50 [3]: 0.03 µg/mL | MIC90 [3]: 0.03 µg/mL | MIC50 [4]: 2 µg/mL | MIC90 [4]: 2 µg/mL

11-N-[4-[4-(3-aminophenyl)[1,2,3]triazol-1-yl]butyl]-6-O-methylerythromycin A 11,12-cyclic carbamate [CEM-103]
Protection of A752 from DMS modification [5]: strongly protects | Protection of A2058 and A2059 in domain V of 23S rRNA from modification with DMS ([5]; E. coli wild-type ribosomes): protect | Protection of A752 from DMS modification [6]: strongly protects | Protection of A2058 and A2059 in domain V of 23S rRNA from modification with DMS ([6]; S. aureus wild-type ribosomes): protect | Protection of A2059 from DMS modification (binding to Erm-modified ribosome) [7]: protection of A2059 from DMS modification | Protection of G2505 from kethoxal modification [7]: partially protected | Protection of U2609 from modification with CMCT [7]: fully protected

CC[C@H]1OC(=O)[C@H](C)C(=O)[C@H](C)[C@@H](OC2O[C@H](C)C[C@H](N(C)C)[C@H]2O)[C@@](C)(OC)C[C@@H](C)C(=O)[C@H](C)[C@H]2N(CCCCn3cc(Cc4c[nH]c5ccccc45)nn3)C(=O)O[C@]12C (stereo partly shown) [CEM-199, 5-O-desosaminyl-11-N-[4-[4-(indol-3-ylmethyl)[1,2,3]triazol-1-yl]butyl]-6-O-methyl-3-oxo-erythronolide A 11,12-cyclic carbamate]
Screening result [8]: 0.06 | Screening result [9]: 0.06 | Screening result [10]: 1 | Screening result [11]: 0.12 | Screening result [12]: 0.5 | Screening result [13]: 0.06 | Screening result [14]: 0.12 | Screening result [15]: 1 | Screening result [16]: 0.5 | Screening result [17]: 0.5 | Screening result [18]: 0.5 | Screening result [19]: >16 | Screening result [20]: 0.06 | Screening result [21]: 16 | Screening result [22]: 16

CC[C@H]1OC(=O)[C@@](C)(F)C(=O)[C@H](C)[C@@H](OC2O[C@H](C)C[C@H](N(C)C)[C@H]2O)[C@@](C)(OC)C[C@@H](C)C(=O)[C@H](C)[C@H]2N(CCCCn3cc(Cc4c[nH]c5ccccc45)nn3)C(=O)O[C@]12C (stereo partly shown) [CEM-219, 2-fluoro-5-O-desosaminyl-11-N-[4-[4-(indol-3-ylmethyl)[1,2,3]triazol-1-yl]butyl]-6-O-methyl-3-oxo-erythronolide A 11,12-cyclic carbamate]
Screening result [8]: ≦0.015 | Screening result [9]: ≦0.015 | Screening result [10]: 0.5 | Screening result [11]: ≦0.015 | Screening result [12]: 0.12 | Screening result [13]: ≦0.015 | Screening result [14]: ≦0.015 | Screening result [15]: 0.5 | Screening result [16]: 0.5 | Screening result [17]: 0.25 | Screening result [18]: 0.25 | Screening result [19]: >16 | Screening result [20]: ≦0.015 | Screening result [21]: >16 | Screening result [22]: >16

CC[C@H]1OC(=O)[C@H](C)[C@@H](O[C@H]2C[C@@](C)(OC)[C@@H](O)[C@H](C)O2)[C@H](C)[C@@H](O[C@@H]2O[C@H](C)C[C@H](N(C)C)[C@H]2O)[C@](C)(O)C[C@@H](C)CN(C)[C@H](C)[C@@H](O)[C@]1(C)O [azithromycin]
IC50 [23]: 300 nM

CC[C@H]1OC(=O)[C@H](C)C(=O)[C@H](C)[C@@H](O[C@@H]2O[C@H](C)C[C@H](N(C)C)[C@H]2O)[C@](C)(OC)C[C@@H](C)C(=O)[C@H](C)[C@H]2N(CCCCn3cnc(-c4cccnc4)c3)C(=O)O[C@]12C [telithromycin]
Protection of A752 from DMS modification [5]: strongly protects | Protection of A752 from DMS modification [6]: strongly protects | Protection of A2059 from DMS modification (binding to Erm-modified ribosome) [7]: protected A2059 but to a lesser extent than CEM-101 or CEM-103 | Protection of G2505 from kethoxal modification [7]: notably weaker protection | Protection of U2609 from modification with CMCT [7]: notably weaker protection | IC50 [23]: 500 nM
